Patent publication US20150064305A1, “USE OF PARA NITRO AMINO DERIVATIVES IN FEED FOR REDUCING METH-ANE EMISSION IN RUMINANTS” (DSM IP ASSETS B.V., priority 2012, published 2015)

Test system: methanogenesis in rumen liquor
Experiment: In vitro test for methane production (modified Hohenheim Forage value Test, HFT)
Settings: reduction in methane produced compared to control, average of two experiments
Description: A modified version of the “Hohenheim Forage value Test (HFT)” was used for testing the effect of specific compounds on the rumen functions mimicked by this in-vitro system.
Feed is given into a syringe with a composition of rumen liquor and an appropriate mixture of buffers. The solution is incubated at 39° C. After 8 hours the quantity (and composition) of methane produced is measured and put into a formula for conversion.
The feed stuff is sieved to 1 mm—usually TMR (44% concentrate, 6% hay, 37% maize silage and 13% grass silage)—and weighed exactly into 64 syringes. 4 of these syringes are the substrate controls, which display the gas production without the effect of the tested compounds. 4 other syringes are positive control, in which bromoethane sulfonate has been added to 0.1 mM. When needed, 4 syringes contain a carrier control (if the test compounds need a carrier). The remaining syringes contain the test substances, by groups of 4 syringes.
The components are mixed in a Woulff bottle in following order: • 711 ml water • 0.18 ml trace element solution • 355.5 ml buffer solution • 355.5 ml mass element solution
The completed solution is warmed up to 39° C. followed by the addition of 1.83 ml sodium salt solution and the addition of reduction solution at 36° C. The rumen liquor is added, when the indicator turns colourless.
750 ml of rumen liquor are added to approximately 1,400 ml of medium solution under continued agitation and CO2-gassing.
The diluted rumen fluid (24 ml) is added to the glass syringe. The syringes are then incubated for 8 hours at 39° C. under gentle agitation. After 8 hours, the volume of gas produced is measured, and the percentage of methane in the gas phase is determined by gas chromatography.
The food fermented was artificial TMR (44% concentrate, 6% hay, 37% maize silage and 13% grass silage). The compounds produced as described in examples 3 to 11 were added to the fermentation syringes to a concentration of 1 to 0.1% of dry matter (DM).
The same in vitro assay as described in Example 1 has been performed with a series of molecules, wherein either the amine group has been replaced or, the amine group is not in para position.

[1] = comparative compounds (Table 3), 1% DM
[2] = 0.1% DM, artificial TMR feed, 8 hours at 39° C.
[3] = 0.25% DM, artificial TMR feed, 8 hours at 39° C.
[4] = 0.5% DM, artificial TMR feed, 8 hours at 39° C.
[5] = 1% DM, artificial TMR feed, 8 hours at 39° C.

Compound | effect on methanogenesis (%) [1] [%] | effect on methanogenesis (%) [2] [%] | effect on methanogenesis (%) [3] [%] | effect on methanogenesis (%) [4] [%] | effect on methanogenesis (%) [5] [%]
Cc1ccc([N+](=O)[O-])cc1 [A, reference compound] | 8 |  |  |  | 
O=C(O)c1ccc(C(=O)Nc2ccc([N+](=O)[O-])cc2)cc1 [C, reference compound] | 3 |  |  |  | 
Nc1ccc([N+](=O)[O-])cc1 [Compound 1, (4-nitro-phenyl)-amine] |  | 15 | 43 | 88 | 100
CNc1ccc([N+](=O)[O-])cc1 [Compound 2, Methyl-(4-nitro-phenyl)-amine] |  | 3 |  |  | 96
CCNc1ccc([N+](=O)[O-])cc1 [Compound 3, Ethyl-(4-nitro-phenyl)-amine] |  | 0 |  |  | 97
CN(C)c1ccc([N+](=O)[O-])cc1 [Compound 4, Dimethyl-(4-nitro-phenyl)-amine] |  | 0 |  |  | 94
CCCNc1ccc([N+](=O)[O-])cc1 [Compound 5, (4-Nitro-phenyl)-propyl-amine] |  | 5 | 20 | 60 | 100
CC(C)Nc1ccc([N+](=O)[O-])cc1 [Compound 6, Isopropyl-(4-nitro-phenyl)-amine] |  | 2 |  |  | 99
O=[N+]([O-])c1ccc(NCCO)cc1 [Compound 7, 2-(4-Nitro-phenylamino)-ethanol] |  | 6 |  |  | 100
O=[N+]([O-])c1ccc(NCCCO)cc1 [Compound 8, 3-(4-Nitro-phenylamino)-propan-1-ol] |  | 1 |  |  | 100
O=[N+]([O-])c1ccc(NCc2ccccn2)cc1 [Compound 9, 4-Nitro-N-(Pyridin-2-ylmethyl)aniline] |  | 3 |  |  | 95
O=C(O)c1ccc(CNc2ccc([N+](=O)[O-])cc2)cc1 [Compound 10, 4-((4-Nitro-phenylamino)-methyl)-benzoic acid] |  |  | 3 | 21 | 97
O=C(O)c1cccc(CNc2ccc([N+](=O)[O-])cc2)c1 [Compound 11, 3-((4-Nitro-phenylamino)-methyl)-benzoic acid] |  | 1 |  |  | 88
Nc1cccc([N+](=O)[O-])c1 [Compound B, 3-Nitro-phenylamine, reference compound] | 7 |  |  |  | 
O=C(O)c1ccc(COc2ccc([N+](=O)[O-])cc2)cc1 [Compound D, 4-(4-Nitro-phenoxymethyl)-benzoic acid, reference compound] | 6 |  |  |  | 
O=[N+]([O-])c1ccc(N2CCOCC2)cc1 [Compound F, 4-(4-Nitrophenyl)morpholine, reference compound] | 8 |  |  |  | 
